From US20040161391A1, “Ascorbic acid compounds as bleaching agents” (L'OREAL, priority 2002, published 2004)
Entries after “also recorded” stand apart in the source; their conditions may differ.

What was measured:
melanogenesis = assay: Activity on melanogenesis (ratio of thiouracil to leucine incorporation); format: cell-based; details: for IC50: read-out: IC50 (concentration for which a 50% inhibition of melanogenesis is observed); for Inhibitory activity on melanogenesis: relative to 100% of control, test concentration: T1 312 μM, T2 327 μM, A 230 μM, B 262 μM
Experimental: The melanogenesis-modulating effect of the compounds of formula (I) was measured according to the method described in patent application EP-0 993 826 filed by the Applicant, and also in the article by R. Schmidt, P. Krien and M. Regnier, Anal. Biochem., 235(2), 113-18, (1996).
(§1) The following were determined for each test compound:
the inhibitory activity on melanin synthesis, by estimating the ratio of the incorporation of thiouracil to the incorporation of leucine, relative to 100% of the control (the control corresponds to the test performed without test compound),
the IC50 value, which corresponds to the micromolar (μM) concentration for which a 50% inhibition of melanogenesis is observed.

[1] = Cytotoxicity by estimating the incorporation of leucine; format: cell-based
Experimental: as §1
the cytotoxicity, by estimating the incorporation of leucine, […]

[2] = test system: melanocytes in co-culture; assay: Activity on the dendricity of melanocytes (melanocyte/keratinocyte co-culture, NKlbeteb labelling); format: cell-based; details: 7 days treatment, 100 μg per ml; test concentration: T1 312 μM, T2 327 μM, A 230 μM, B 262 μM
Experimental: The aim of this test is to show the effect of the compounds used according to the invention on the morphological modulation of melanocytes.
The melanocytes are treated immediately on inoculation with the compounds according to the invention for 7 days. The compounds are used at a dose of 100 μg per ml.
The melanocytes are labelled using the antibody NKlbeteb (green coloration), which recognizes melanosomes at any stage of maturation. The nucleus of all the cells, melanocytes and keratinocytes, is stained using propidium iodide (red coloration).
In the absence of the compounds according to the invention, the melanocytes in co-culture are highly dendritic. The pigment is visibly transferred to the neighbouring keratinocytes.

tyrosinase = target: T1, tyrosinase (Homo sapiens, UniProt P14679); details: J. Soc. Cosmet. Chem., 42, 1991; cited from earlier work
T1 sequence (P14679 19-529): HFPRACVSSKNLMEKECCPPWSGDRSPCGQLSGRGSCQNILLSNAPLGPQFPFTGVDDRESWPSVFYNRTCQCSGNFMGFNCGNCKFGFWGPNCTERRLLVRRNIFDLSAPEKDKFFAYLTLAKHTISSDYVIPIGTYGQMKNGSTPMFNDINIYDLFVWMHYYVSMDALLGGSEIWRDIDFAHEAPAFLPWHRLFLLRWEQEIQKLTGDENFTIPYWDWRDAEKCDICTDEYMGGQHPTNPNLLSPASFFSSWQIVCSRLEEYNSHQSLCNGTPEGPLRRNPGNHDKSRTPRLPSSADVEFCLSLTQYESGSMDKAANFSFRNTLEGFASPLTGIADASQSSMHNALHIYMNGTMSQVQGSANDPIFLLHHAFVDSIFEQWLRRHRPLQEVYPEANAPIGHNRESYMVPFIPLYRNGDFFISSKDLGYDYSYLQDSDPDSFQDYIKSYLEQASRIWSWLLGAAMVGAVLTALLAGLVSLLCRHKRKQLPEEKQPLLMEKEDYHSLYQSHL

melanocytes = details: Pigment. Cell. Res., 13, 2000; cited from earlier work

**Q.** Which IC50 (melanogenesis) does the source give for COc1cc(/C=C/C(=O)OC2=C(O)C(C3COC(C)(C)O3)OC2=O)ccc1OC(C)=O (centres unmarked) [Compound A, 5-(2,2-dimethyl[1,3]dioxolan-4-yl)-4-hydroxy-2-oxo-2,5-dihydro-3-furanyl 3-[(4-acetoxy-3-methoxy)phenyl]acrylate] here?
**A.** The IC50 was 200 µM.

**Q.** And the Cytotoxicity [1]?
**A.** Its Cytotoxicity is “No”.

**Q.** And the Dendricity [2]?
**A.** Its Dendricity is “Bipolar”.

**Q.** What about the Transfer of pigmentation [2] of the same compound?
**A.** Its Transfer of pigmentation is “reduced; also recorded: Little”.

**Q.** With COc1cc(/C=C/C(=O)OC2=C(O)C(C3COC(C)(C)O3)OC2=O)ccc1O (centres unmarked) [Compound B, 5-(2,2-dimethyl[1,3]dioxolan-4-yl)-4-hydroxy-2-oxo-2,5-dihydro-3-furanyl 3-[(4-hydroxy-3-methoxy)phenyl]acrylate] as the compound, how does the IC50 (melanogenesis) read?
**A.** Its IC50 is 500 µM.

**Q.** And the Cytotoxicity [1]?
**A.** The Cytotoxicity was “No”.

**Q.** And the Dendricity [2]?
**A.** Its Dendricity is “Bipolar”.

**Q.** And the Transfer of pigmentation [2]?
**A.** The Transfer of pigmentation was “reduced; also recorded: Little”.

**Q.** Which “IC50 (concentration for which a 50% inhibition of melanogenesis is observed)” value (melanogenesis) does the source give for O=C(/C=C/c1ccccc1)OC1=C(O)[C@@H]([C@@H](O)CO)OC1=O [Compound T2, ascorbyl 2-cinnamate] here?
**A.** The value was “No effect”.

**Q.** What about the “Inhibitory activity on melanogenesis” value (melanogenesis) of the same compound?
**A.** Its value is “No effect”.

**Q.** What about the Cytotoxicity [1] of the same compound?
**A.** The Cytotoxicity was “No”.

**Q.** What about the Dendricity [2] of the same compound?
**A.** The Dendricity was “Multipolar”.

**Q.** What about the Transfer of pigmentation [2] of the same compound?
**A.** Its Transfer of pigmentation is “Large”.

**Q.** With O=C1O[C@H]([C@@H](O)CO)C(O)=C1O [ascorbic acid] as the compound, how does the Effect on tyrosinase (tyrosinase) read?
**A.** The Effect on tyrosinase was “inhibitory effect”.

**Q.** Which “Dendricity of the melanocytes” value (melanocytes) does the source give for O=C1O[C@H]([C@@H](O)CO)C([O-])=C1OP(=O)([O-])[O-].O=C1O[C@H]([C@@H](O)CO)C([O-])=C1OP(=O)([O-])[O-].[Mg+2].[Mg+2].[Mg+2] [magnesium ascorbyl phosphate] here?
**A.** Its value is “reduce the dendricity”.

**Q.** What about the Melanin transfer (melanocytes) of the same compound?
**A.** The Melanin transfer was “effect on melanin transfer”.

**Q.** For “methyl 2,3-bis-acetate of ascorbic acid [Compound T1]”, which “IC50 (concentration for which a 50% inhibition of melanogenesis is observed)” value (melanogenesis) is on record?
**A.** The value was “No effect”.

**Q.** What about the “Inhibitory activity on melanogenesis” value (melanogenesis) of the same compound?
**A.** Its value is “No effect”.

**Q.** What about the Dendricity [2] of the same compound?
**A.** The Dendricity was “Multipolar”.

**Q.** And the Transfer of pigmentation [2]?
**A.** Its Transfer of pigmentation is “Large”.
